Values quoted from earlier work as cited in patent publication US20220380769A1 (priority 2020, published 2022).

Test system: avian H5N1 influenza virus clades
Details: in vivo; cited from earlier work

In the case of rIn.r(C12U)n [Rintatolimod], the “protection from lethal challenge doses of three avian H5N1 influenza virus clades” value is given as “able to protect”.
